Source: patent publication US12624018B1, “Inhibitors of RIPK2 and medical uses thereof” (Odyssey Therapeutics, Inc., priority 2022, dated 2026)
Counter-ions that a name gives are not always drawn. Values belong to the molecule of their own block, whether it stands above or below them.

Assays:
[1] = target: T1, RIPK2 enzyme (Homo sapiens, UniProt O43353); assay: RIPK2 inhibition (ADP-Glo Kinase Assay); format: biochemical; details: RIPK2 5 nM, ATP 150 μM, MBP substrate, read-out: RIPK2 IC50
T1 construct: purchased Carna 09-128
Summary of the method: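 Swine MBP substrate; compound and 5 nM RIPK2 first mixed for 30 min at room temperature; buffer pH 7.5 HEPES 50 mM with 10 mM MgCl2, 2 mM DTT, 1 mM EGTA, Brij-35, BSA.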

[2] = tested on: human NOD2 signaling; assay: Inhibition of human NOD2 signaling in HEK-Blue-hNOD2 cells (L18-MDP stimulated, SEAP reporter); format: cell-based; details: Homo sapiens, HEK-Blue hNOD2, HEK-Blue-hNOD2 cells, NOD2 ligand stimulation, SEAP reporter; read-out: hNOD2 IC50
Procedure: Materials: Human NOD32-expressing 1TEK293 cells, HEK-Blue™-hNOD2 cells, were developed by Invivogen (catalogue number: hkb-hnod2) using co-transfection of the human NOD2 gene and an optimized secreted embryonic alkaline phosphatase (SEAP) reporter gene into HTEK293 cells. The cell maintenance medium consisted of DMEM (Giboc, 21063-029), heat inactivated FBS, penicillin (100 U/mL), streptomycin (100 μg/mL), Normocin (100 μg/mL), Blasticidin (30 μg/mL), and Zeocin (100 μg/mL). HEK-Blue™-hNOD2 cells were transferred to assay medium consisting of DMEM (Giboc, 21063-029), heat inactivated FBS, penicillin (100 U/mL) and streptomycin (100 μg/mL) prior to stimulation. Stimulation with a NOD2 ligand, L18-MDP (Invivogen, catalogue number: tlrl-lmdp) activated NF-κB and AP-1 which induced the production of SEAP. Levels of SEAP were determined with HEK-Blue™ Detection (referred to as QUANTI-Blue solution), a cell culture medium that allows for real-time detection of SEAP. QUANTI-Blue solution was prepared by adding 1 mL of QB reagent and 1 mL of QB buffer to 98 mL of sterile H2O. Test compounds were prepared into a 10 mM DMSO solution and were serially diluted into 10 points using a 3-fold dilution in a 384 well plate using a TECAN EVO200.
Method: In a 384 well plate, 40 nL of test compound was dispensed using Echo550. HEK-Blue™-hNOD2 cells (Invivogen) were prepared into a cell suspension and 40 μL of the cell suspension (12500 cells per well) was dispensed into the 384 well plate. To activate NOD2 signaling, 40 nL of L18-MDP (final concentration of 0.5 ng/mL) was added and the plate was incubated at 37° C. in a CO2 incubator for 24 hours. After the 24-hour incubation, 5 μL of the induced HEK-Blue hNOD2 cell supernatant was transferred to a new 384-well plate, centrifuged, and 45 μL of QUANTI-Blue solution was added per well and incubated for 3 hours at 37° C. SEAP levels were measured using an Ensight at 620 nm. Percent inhibition of NOD2 signaling was determined using the following equation: (high control−test compound signal)/(High control−low control)×100. The reaction high control was determined using wells with DMSO, cells, L18-MDP, and QUANTI-Blue solution. The reaction low control was determined using wells with DMSO, cells, and QUANTI-Blue solution. 4-parametric curve fit was used to determine the test compound concentration that results in 50% reduction of L18-MDP-driven human NOD2 signaling.
Using the assay described above, inhibition of hNOD2 signaling was also evaluated for GSK 2983559 (Haile at al., J. Med. Chem. 2019, 62, 14, 6482-6494), a known RIPK2 kinase inhibitor: […]

T1 sequence (O43353 1-299 limits assumed): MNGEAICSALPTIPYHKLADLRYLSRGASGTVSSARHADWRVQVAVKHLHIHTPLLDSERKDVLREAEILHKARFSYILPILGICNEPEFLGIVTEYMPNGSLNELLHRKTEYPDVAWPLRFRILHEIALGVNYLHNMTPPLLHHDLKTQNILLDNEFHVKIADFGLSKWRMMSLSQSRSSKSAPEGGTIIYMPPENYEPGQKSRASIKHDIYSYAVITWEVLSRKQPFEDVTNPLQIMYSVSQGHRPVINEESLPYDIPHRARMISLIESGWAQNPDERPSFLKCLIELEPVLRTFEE

SMILES: Cc1cc(CC(=O)Nc2cnn(C(C)(C)C)c2)c(F)cc1Oc1ccnc2ccc(-c3nnc(CO)cc3C)cc12 [Compound 521, N-(1-(tert-butyl)-1H-pyrazol-4-yl)-2-(2-fluoro-4-((6-(6-(hydroxymethyl)-4-methylpyridazin-3-yl)quinolin-4-yl)oxy)-5-methylphenyl)acetamide]
- IC50 [1]: < 2.5 nM
- IC50 [2]: 2.2 nM

SMILES: Cc1cc(CC(=O)Nc2cnn(C(C)(C)C)c2)c(F)cc1Oc1ccnc2ccc(-c3ncccc3C(F)(F)F)cc12 [Compound 522, N-(1-(tert-butyl)-1H-pyrazol-4-yl)-2-(2-fluoro-5-methyl-4-((6-(3-(trifluoromethyl)pyridin-2-yl)quinolin-4-yl)oxy)phenyl)acetamide]
- IC50 [1]: 8.6 nM
- IC50 [2]: 25.8 nM

SMILES: Cc1cc(CC(=O)Nc2cnn(C(C)(C)C)c2)c(F)cc1Oc1ccnc2ccc(-c3cncnc3C)cc12 [Compound 524, N-(1-(tert-butyl)-1H-pyrazol-4-yl)-2-(2-fluoro-5-methyl-4-((6-(4-methylpyrimidin-5-yl)quinolin-4-yl)oxy)phenyl)acetamide]
- IC50 [1]: < 2.5 nM
- IC50 [2]: 0.7 nM

SMILES: Cc1cc(CC(=O)Nc2cnn(C(C)(C)C)c2)c(F)cc1Oc1ccnc2ccc(-c3ccnnc3C)cc12 [Compound 525, N-(1-(tert-butyl)-1H-pyrazol-4-yl)-2-(2-fluoro-5-methyl-4-((6-(3-methylpyridazin-4-yl)quinolin-4-yl)oxy)phenyl)acetamide]
- IC50 [1]: < 2.5 nM
- IC50 [2]: 5.5 nM

SMILES: CNC(=O)c1cc2c(Oc3cc(F)c(CC(=O)Nc4cnn(C(C)(C)C)c4)cc3C)ccnc2cc1C [Compound 564, 4-(4-(2-((1-(tert-butyl)-1H-pyrazol-4-yl)amino)-2-oxoethyl)-5-fluoro-2-methylphenoxy)-N,7-dimethylquinoline-6-carboxamide]
- IC50 [1]: < 2.5 nM
- IC50 [2]: 10.8 nM

SMILES: Cc1cc(CC(=O)Nc2cnn(C(C)(C)C)c2)c(F)cc1Oc1ccnc2ccc(C3(C(N)=O)CC3)cc12 [Compound 570, 1-(4-(4-(2-((1-(tert-butyl)-1H-pyrazol-4-yl)amino)-2-oxoethyl)-5-fluoro-2-methylphenoxy)quinolin-6-yl)cyclopropane-1-carboxamide]
- IC50 [1]: 2.7 nM
- IC50 [2]: 10.5 nM

SMILES: CNC(=O)C1(c2ccc3nccc(Oc4cc(F)c(CC(=O)Nc5cnn(C(C)(C)C)c5)cc4C)c3c2)CC1 [Compound 571, 1-(4-(4-(2-((1-(tert-butyl)-1H-pyrazol-4-yl)amino)-2-oxoethyl)-5-fluoro-2-methylphenoxy)quinolin-6-yl)-N-methylcyclopropane-1-carboxamide formic acid salt]
- IC50 [1]: 2.9 nM
- IC50 [2]: 4.5 nM

SMILES: CNC(=O)C(F)(F)c1ccc2nccc(Oc3cc(F)c(CC(=O)Nc4cnn(C(C)(C)C)c4)cc3C)c2c1 [Compound 573, 2-(4-(4-(2-((1-(tert-butyl)-1H-pyrazol-4-yl)amino)-2-oxoethyl)-5-fluoro-2-methylphenoxy)quinolin-6-yl)-2,2-difluoro-N-methylacetamide]
- IC50 [1]: < 2.5 nM
- IC50 [2]: 1 nM

SMILES: [2H]C([2H])([2H])NC(=O)c1ccc2nccc(Oc3ccc(CC(=O)Nc4cnn(C(C)(C)C)c4)cc3C(F)F)c2c1 [Compound 574, 4-(4-(2-((1-(tert-butyl)-1H-pyrazol-4-yl)amino)-2-oxoethyl)-2-(difluoromethyl)phenoxy)-N-(methyl-d3)quinoline-6-carboxamide]
- IC50 [1]: < 2.5 nM
- IC50 [2]: 3.2 nM

SMILES: CC(C)(C)n1cc(NC(=O)Cc2ccc(Oc3ccnc4cc(F)c(C(N)=O)cc34)c(C(F)F)c2)cn1 [Compound 575, 4-(4-(2-((1-(tert-butyl)-1H-pyrazol-4-yl)amino)-2-oxoethyl)-2-(difluoromethyl)phenoxy)-7-fluoroquinoline-6-carboxamide]
- IC50 [1]: < 2.5 nM
- IC50 [2]: 2.2 nM

SMILES: CNC(=O)c1cc2c(Oc3ccc(CC(=O)Nc4cnn(C(C)(C)C)c4)cc3C(F)F)ccnc2cc1F [Compound 576, 4-(4-(2-((1-(tert-butyl)-1H-pyrazol-4-yl)amino)-2-oxoethyl)-2-(difluoromethyl)phenoxy)-7-fluoro-N-methylquinoline-6-carboxamide]
- IC50 [1]: < 2.5 nM
- IC50 [2]: 5.2 nM

Further lines, results first:

- IC50 [1]: < 2.5 nM
- IC50 [2]: 8 nM
SMILES: [2H]C([2H])([2H])NC(=O)c1ccc2nccc(Oc3cc(F)c(CC(=O)Nc4cnn(C56CC(C5)C6)c4)cc3Cl)c2c1 [Compound 511, 4-(4-(2-((1-(bicyclo[1.1.1]pentan-1-yl)-1H-pyrazol-4-yl)amino)-2-oxoethyl)-2-chloro-5-fluorophenoxy)-N-(methyl-d3)quinoline-6-carboxamide]

- IC50 [1]: < 2.5 nM
- IC50 [2]: 1.5 nM
SMILES: Cc1cc(CC(=O)Nc2cnn(C(C)(C)C)c2)c(F)cc1Oc1ccnc2ccc(C(=O)NC3(C)COC3)cc12 [Compound 514, 4-(4-(2-((1-(tert-butyl)-1H-pyrazol-4-yl)amino)-2-oxoethyl)-5-fluoro-2-methylphenoxy)-N-(3-methyloxetan-3-yl)quinoline-6-carboxamide]

- IC50 [1]: < 2.5 nM
- IC50 [2]: 0.6 nM
SMILES: Cc1cc(CC(=O)Nc2cnn(C(C)(C)C)c2)c(F)cc1Oc1ccnc2ccc(C(=O)N(C)C3(C)CC3)cc12 [Compound 519, 4-(4-(2-((1-(tert-butyl)-1H-pyrazol-4-yl)amino)-2-oxoethyl)-5-fluoro-2-methylphenoxy)-N-methyl-N-(1-methylcyclopropyl)quinoline-6-carboxamide]

- IC50 [1]: < 2.5 nM
- IC50 [2]: 0.7 nM
SMILES: Cc1ccnnc1-c1ccc2nccc(Oc3cc(F)c(CC(=O)Nc4cnn(C(C)(C)C)c4)cc3Cl)c2c1 [Compound 520, N-(1-(tert-butyl)-1H-pyrazol-4-yl)-2-(5-chloro-2-fluoro-4-((6-(4-methylpyridazin-3-yl)quinolin-4-yl)oxy)phenyl)acetamide]

- IC50 [1]: < 2.5 nM
- IC50 [2]: 16.1 nM
SMILES: Cc1cc(CC(=O)Nc2cnn(C(C)(C)C)c2)c(F)cc1Oc1ccnc2ccc(-c3c(C)ncnc3C)cc12 [Compound 526, N-(1-(tert-butyl)-1H-pyrazol-4-yl)-2-(4-((6-(4,6-dimethylpyrimidin-5-yl)quinolin-4-yl)oxy)-2-fluoro-5-methylphenyl)acetamide]

- IC50 [1]: < 2.5 nM
- IC50 [2]: 15.4 nM
SMILES: CC(C)(C)n1cc(NC(=O)Cc2cc(Cl)c(Oc3ccnc4ccc(CS(C)(=O)=O)cc34)cc2F)cn1 [Compound 561, N-(1-(tert-butyl)-1H-pyrazol-4-yl)-2-(5-chloro-2-fluoro-4-((6-((methylsulfonyl)methyl)quinolin-4-yl)oxy)phenyl)acetamide]

- IC50 [1]: < 2.5 nM
- IC50 [2]: 6.9 nM
SMILES: CNC(=O)c1cc2c(Oc3cc(F)c(CC(=O)Nc4cnn(C(C)(C)C)c4)cc3C)ccnc2cc1Cl [Compound 565, 4-(4-(2-((1-(tert-butyl)-1H-pyrazol-4-yl)amino)-2-oxoethyl)-5-fluoro-2-methylphenoxy)-7-chloro-N-methylquinoline-6-carboxamide]

- IC50 [1]: < 2.5 nM
- IC50 [2]: 9.8 nM
SMILES: CNC(=O)Cc1ccc2nccc(Oc3cc(F)c(CC(=O)Nc4cnn(C(C)(C)C)c4)cc3C)c2c1 [Compound 567, N-(1-(tert-butyl)-1H-pyrazol-4-yl)-2-(2-fluoro-5-methyl-4-((6-(2-(methylamino)-2-oxoethyl)quinolin-4-yl)oxy)phenyl)acetamide formic acid salt]

- IC50 [1]: < 2.5 nM
- IC50 [2]: 10.4 nM
SMILES: CNC(=O)C(C)(C)c1ccc2nccc(Oc3cc(F)c(CC(=O)Nc4cnn(C(C)(C)C)c4)cc3C)c2c1 [Compound 569, 2-(4-(4-(2-((1-(tert-butyl)-1H-pyrazol-4-yl)amino)-2-oxoethyl)-5-fluoro-2-methylphenoxy)quinolin-6-yl)-N,2-dimethylpropanamide]

- IC50 [1]: < 2.5 nM
- IC50 [2]: 2 nM
SMILES: [2H]C([2H])([2H])NC(=O)c1cc2c(Oc3ccc(CC(=O)Nc4cnn(C(C)(C)C)c4)cc3C(F)F)ccnc2cc1F [Compound 577, 4-(4-(2-((1-(tert-butyl)-1H-pyrazol-4-yl)amino)-2-oxoethyl)-2-(difluoromethyl)phenoxy)-7-fluoro-N-(methyl-d3)quinoline-6-carboxamide]
